Measurements as given in patent US9079913B2, “Spiro-oxindole MDM2 antagonists” (The Regents of the University of Michigan, priority 2009, dated 2015).
Like-named read-outs stand apart in the source and are kept apart here.

What was measured:
[1] = tested on: Isogenic HCT-116 colon cancer cell lines; assay: cells; type: cell-based;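 note: cells grown in 96-well plates in McCoy's 5A medium with 10% FBS, exposed to compound for 4 days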
Experimental: Cells were seeded in 96-well flat bottom cell culture plates at a density of 2−3×10^3 cells/well with compounds and incubated for 4 days.

[2] = tested on: cancer cell lines with wild-type p53 / mutated or deleted p53 (ATCC); assay: Cell growth assay (WST-8), other cancer cell lines; type: cell-based
[3] = molecular target: recombinant human His-tagged MDM2 protein (residues 1-118) (Homo sapiens (Human), UniProt Q00987); assay: Fluorescence-polarization MDM2 binding assay;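 note: fluorescence polarization read after three hours of incubation in potassium phosphate buffer containing bovine gamma globulin and Triton X-100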
Chain of recombinant human His-tagged MDM2 protein (residues 1-118) (Q00987 1-118): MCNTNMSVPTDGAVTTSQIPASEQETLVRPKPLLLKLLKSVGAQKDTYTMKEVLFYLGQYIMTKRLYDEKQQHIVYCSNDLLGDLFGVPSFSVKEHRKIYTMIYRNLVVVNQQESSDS

[4] = Homo sapiens, HCT-116, read-out: HCT-116 (p53-/-) IC50, Table 19A, HCT-116 p53-/-, cell growth
[5] = Homo sapiens, HCT-116, read-out: HCT-116 (p53 wild-type) IC50, Table 19A, HCT-116 p53 wild-type, cell growth
[6] = Homo sapiens, SJSA-1, Table 19A, SJSA-1 cells, p53 wild-type, cell growth, read-out: SJSA-1 (p53 wild-type) IC50
[7] = Table 19A, FP binding assay, read-out: MDM2 IC50
[8] = Homo sapiens, HCT-116, read-out: Cell growth inhibition using WST assay, HCT116 p53KO IC50, Table 19C, HCT116 p53KO
[9] = Homo sapiens, HCT-116, read-out: Cell growth inhibition using WST assay, HCT116 p53WT IC50, Table 19C, HCT116 p53WT
[10] = Homo sapiens, LNCaP, Table 19C, LNCaP cells, read-out: Cell growth inhibition using WST assay, LNCaP IC50
[11] = Homo sapiens, PC-3, Table 19C, PC3 cells, read-out: Cell growth inhibition using WST assay, PC3 IC50
[12] = Table 19C, read-out: Bidning affinities to MDM2 as determined using FP assay IC50
[13] = Homo sapiens, LNCaP, Table 19A, LNCAP cells, p53 wild-type, cell growth, read-out: LNCAP (p53 wild-type) IC50
[14] = Homo sapiens, HCT-116, read-out: Inhibition of cell growth IC50, HCT116 p53 KO, Table 19B, HCT116 p53 KO
[15] = Homo sapiens, HCT-116, read-out: Inhibition of cell growth IC50, HCT116 p53 WT, Table 19B, HCT116 p53 WT
[16] = Homo sapiens, LNCaP, Table 19B, LNCaP cells, read-out: Inhibition of cell growth IC50, LNCaP
[17] = Homo sapiens, PC-3, Table 19B, PC3 cells, read-out: Inhibition of cell growth IC50, PC3
[18] = Table 19B, read-out: Binding affinities to MDM2 protein as determined by FP based assay IC50
[19] = Table 19D, read-out: MDM2 Binding Affinities IC50

Molecule `CC(C)(C)C[C@H]1N[C@@H](C(=O)NC2CCNCC2)[C@H](c2cccc(Cl)c2F)[C@@]12C(=O)Nc1cc(Cl)ccc12` [MI-782] has an IC50 [1, 4] of 4.7 µM, an IC50 [1, 5] of 0.7 µM and an IC50 [2, 6] of 1.2 µM. The IC50 [3, 7] was less than 1 µM.
Work on `CC(C)(C)C[C@H]1N[C@@H](C(=O)NC[C@H](O)[C@H](O)CO)[C@H](Cc2cccc(Cl)c2)[C@@]12C(=O)Nc1cc(Cl)c(F)cc12` [MI-319-24] yielded an IC50 [1, 8] greater than 10 µM, an IC50 [1, 9] of less than 5 µM and an IC50 [2, 10] of less than 5 µM. It also gave an IC50 [2, 11] greater than 10 µM and an IC50 [3, 12] of less than 1 µM.
For `CC(C)(C)C[C@H]1N[C@@H](C(=O)NC2CCC(N)CC2)[C@H](c2cccc(Cl)c2)[C@@]12C(=O)Nc1cc(Cl)c(F)cc12` (stereo partly drawn) [MI-776], the IC50 [1, 5] was 2.7 µM, the IC50 [2, 13] was 2.4 µM and the IC50 [2, 6] was 3.2 µM. The IC50 [3, 7] was less than 1 µM.
`CC(C)CC(C)(C)C[C@H]1N[C@@H](C(=O)NCC[C@H](O)CO)[C@H](c2cccc(Cl)c2F)[C@@]12C(=O)Nc1cc(F)c(F)cc12` [MI-732] was tested, and the IC50 [1, 14] was 10.2 ± 4.8 µM, the IC50 [1, 15] was 0.7 ± 0.1 µM and the IC50 [2, 16] was 0.7 µM. The IC50 [2, 17] was 5.8 µM and the IC50 [3, 18] was less than 1 µM.
Molecule `CC(C)(C)C[C@H]1N[C@@H](C(=O)NCC2CC(O)C(O)C2)[C@H](c2cccc(Cl)c2)[C@@]12C(=O)Nc1cc(Cl)c(F)cc12` (stereo partly drawn) [MI-519-37] has an IC50 ([1]; read-out: HCT-116 (p53-/-) IC50, Table 19A, HCT-116 p53-/-, cell growth) of 14.9 ± 2 µM, an IC50 ([1]; read-out: HCT-116 (p53 wild-type) IC50, Table 19A, HCT-116 p53 wild-type, cell growth) of 1 ± 0.5 µM and an IC50 ([2]; Table 19A, LNCAP cells, p53 wild-type, cell growth, read-out: LNCAP (p53 wild-type) IC50) of 0.6 ± 0.1 µM. For the same molecule, the IC50 ([2]; Table 19A, PC-3 cells, deleted p53, cell growth, read-out: PC-3 (deleted p53) IC50) was 14 ± 2.2 µM and the IC50 [3, 7] was less than 1 µM.
`CN1[C@@H](C(=O)NCC[C@H](O)CO)[C@H](c2cccc(Cl)c2)[C@@]2(C(=O)Nc3cc(Cl)c(F)cc32)[C@H]1CCc1cccs1` [MI-714] was tested, and the IC50 [1, 14] was 7.5 ± 0.3 µM, the IC50 [1, 15] was 8.6 ± 0.1 µM and the IC50 [2, 16] was 4.3 µM. The IC50 [2, 17] was 7.7 ± 1.6 µM and the IC50 [3, 18] was greater than 10 µM.
Work on `O=C(NCC[C@H](O)CO)[C@@H]1N[C@H](CCc2cccs2)[C@]2(C(=O)Nc3cc(Cl)c(F)cc32)[C@H]1c1cccc(Cl)c1` [MI-703] yielded an IC50 [1, 14] of 4.3 ± 1.6 µM, an IC50 [1, 15] of 1 ± 0.2 µM and an IC50 [2, 16] of 0.2 µM. The IC50 [2, 17] was 3.9 ± 0.5 µM and the IC50 [3, 18] was greater than 1 µM.
Work on `CCOP(=O)(OCC)OC[C@@H](O)CCNC(=O)[C@@H]1N[C@H](CC(C)(C)C)[C@]2(C(=O)Nc3cc(Cl)c(F)cc32)[C@H]1c1ccc(F)c(Cl)c1` [MI-319-27] yielded an IC50 [1, 8] greater than 10 µM, an IC50 [1, 9] of less than 5 µM and an IC50 ([2]; Homo sapiens, LNCaP, read-out: Cell growth inhibition using WST assay, LNCaP IC50) of less than 5 µM. The IC50 ([2]; Homo sapiens, PC-3, read-out: Cell growth inhibition using WST assay, PC3 IC50) was greater than 10 µM and the IC50 [3, 12] was less than 5 µM.
With `CCCN1CCN(CCNC(=O)[C@@H]2N[C@H](CC(C)(C)C)[C@]3(C(=O)Nc4cc(Cl)c(F)cc43)[C@H]2c2cccc(Cl)c2)CC1` [MI-519-21] the IC50 ([1]; Homo sapiens, HCT-116, read-out: HCT116p53KO IC50, Table 19D, HCT116 p53KO) was 5.8 ± 1.9 µM, the IC50 ([1]; Homo sapiens, HCT-116, read-out: HCT116p53WT IC50, Table 19D, HCT116 p53WT) was 1.4 ± 0.5 µM and the IC50 ([2]; Homo sapiens, LNCaP, Table 19D, LNCaP cells, read-out: LNCaP IC50) was 1.5 ± 0.6 µM. It also gave an IC50 ([2]; Homo sapiens, PC-3, Table 19D, PC3 cells, read-out: PC3 IC50) of 4.8 ± 0.4 µM and an IC50 [3, 19] of less than 3 µM.
Work on `CC(C)(C)C[C@H]1N[C@@H](C(=O)NCCC2CCC(O)C2)[C@H](c2cccc(Cl)c2)[C@@]12C(=O)Nc1cc(F)c(F)cc12` (stereo partly drawn) [MI-519-26] yielded an IC50 ([1]; read-out: HCT116p53KO IC50, Table 19D, HCT116 p53KO) greater than 10 µM, an IC50 ([1]; read-out: HCT116p53WT IC50, Table 19D, HCT116 p53WT) of less than 5 µM and an IC50 ([2]; Table 19D, LNCaP cells, read-out: LNCaP IC50) of less than 5 µM. The IC50 ([2]; Table 19D, PC3 cells, read-out: PC3 IC50) was greater than 10 µM and the IC50 [3, 19] was less than 10 µM.
`CC(C)(C)C[C@H]1N[C@@H](C(=O)N2CCNCC2)[C@H](c2cccc(Cl)c2)[C@@]12C(=O)Nc1cc(Cl)c(F)cc12` [MI-739] showed an IC50 [1, 4] of 3 ± 0.2 µM, an IC50 [1, 5] of 2.1 ± 0.6 µM and an IC50 [2, 13] of 1.5 ± 0.5 µM. The IC50 ([2]; Homo sapiens, PC-3, Table 19A, PC-3 cells, deleted p53, cell growth, read-out: PC-3 (deleted p53) IC50) was 3.2 ± 0.7 µM and the IC50 [3, 7] was less than 5 µM.
`CC(C)(C)C[C@H]1N[C@@H](C(=O)NCC[C@H](O)COC(=O)CC(=O)O)[C@H](c2ccc(F)c(Cl)c2)[C@@]12C(=O)Nc1cc(Cl)c(F)cc12` [MI-319-26] was tested, and the IC50 [1, 8] was greater than 10 µM, the IC50 [1, 9] was less than 5 µM and the IC50 [2, 10] was less than 5 µM. It also gave an IC50 [2, 11] greater than 10 µM and an IC50 [3, 12] of less than 1 µM.
In the case of `CN1[C@@H](C(=O)NCC[C@H](O)CO)[C@H](c2cccc(Cl)c2F)[C@@]2(C(=O)Nc3cc(F)c(F)cc32)[C@H]1CC(C)(C)C` [MI-718], the IC50 [1, 14] is reported as 47.2 ± 5 µM, the IC50 [1, 15] is reported as 3 ± 1.1 µM and the IC50 [2, 16] is reported as 3.7 ± 0.3 µM. The IC50 [2, 17] was 34.2 ± 0.4 µM and the IC50 [3, 18] was greater than 3 µM.
